# Test results reported in the NIST ThermoML archive (doi:10.1016/j.jct.2017.05.001).
# Numbers after ± are expanded uncertainties.
# Experiment: wn = mass fraction of the nth substance listed
# Conditions: 333.15 K, Liquid; for viscosity: Falling or rolling sphere viscometry; for mass density: Vibrating tube method
compound,measurement,setting,value
"CN(C)CCO [2-(N,N-dimethylamino)ethanol] + O",viscosity,"5000 kPa, w1 = 0.3995",1.669 ± 0.055 mPa·s
same,mass density,"5000 kPa, w1 = 0.1005",979.5 ± 0.7 kg/m3
same,mass density,"5000 kPa, w1 = 0.202",973.7 ± 0.7 kg/m3
same,mass density,"5000 kPa, w1 = 0.3005",967.3 ± 0.7 kg/m3
same,mass density,"5000 kPa, w1 = 0.3995",959.6 ± 0.7 kg/m3
same,viscosity,"10000 kPa, w1 = 0.1005",0.6372 ± 0.021 mPa·s
same,viscosity,"10000 kPa, w1 = 0.202",0.8862 ± 0.029 mPa·s
same,viscosity,"10000 kPa, w1 = 0.3005",1.239 ± 0.041 mPa·s
same,viscosity,"10000 kPa, w1 = 0.3995",1.695 ± 0.056 mPa·s
same,mass density,"10000 kPa, w1 = 0.1005",981.5 ± 0.7 kg/m3
same,mass density,"10000 kPa, w1 = 0.202",975.7 ± 0.7 kg/m3
same,mass density,"10000 kPa, w1 = 0.3005",969.5 ± 0.7 kg/m3
same,mass density,"10000 kPa, w1 = 0.3995",961.8 ± 0.7 kg/m3
same,viscosity,"15000 kPa, w1 = 0.1005",0.6403 ± 0.021 mPa·s
same,viscosity,"15000 kPa, w1 = 0.202",0.8907 ± 0.029 mPa·s
same,viscosity,"15000 kPa, w1 = 0.3005",1.249 ± 0.041 mPa·s
same,viscosity,"15000 kPa, w1 = 0.3995",1.719 ± 0.056 mPa·s
same,mass density,"15000 kPa, w1 = 0.1005",983.6 ± 0.7 kg/m3
same,mass density,"15000 kPa, w1 = 0.202",977.7 ± 0.7 kg/m3
same,mass density,"15000 kPa, w1 = 0.3005",971.5 ± 0.7 kg/m3
same,mass density,"15000 kPa, w1 = 0.3995",963.9 ± 0.7 kg/m3
same,viscosity,"20000 kPa, w1 = 0.1005",0.6431 ± 0.021 mPa·s
same,viscosity,"20000 kPa, w1 = 0.202",0.897 ± 0.029 mPa·s
same,viscosity,"20000 kPa, w1 = 0.3005",1.26 ± 0.041 mPa·s
same,viscosity,"20000 kPa, w1 = 0.3995",1.742 ± 0.057 mPa·s
same,mass density,"20000 kPa, w1 = 0.1005",985.6 ± 0.7 kg/m3
same,mass density,"20000 kPa, w1 = 0.202",979.7 ± 0.7 kg/m3
same,mass density,"20000 kPa, w1 = 0.3005",973.5 ± 0.7 kg/m3
same,mass density,"20000 kPa, w1 = 0.3995",966 ± 0.7 kg/m3
same,viscosity,"25000 kPa, w1 = 0.1005",0.6461 ± 0.021 mPa·s
same,viscosity,"25000 kPa, w1 = 0.202",0.9026 ± 0.03 mPa·s
same,viscosity,"25000 kPa, w1 = 0.3005",1.274 ± 0.042 mPa·s
same,viscosity,"25000 kPa, w1 = 0.3995",1.765 ± 0.058 mPa·s
same,viscosity,"30000 kPa, w1 = 0.1005",0.6477 ± 0.021 mPa·s
same,viscosity,"30000 kPa, w1 = 0.202",0.9063 ± 0.03 mPa·s
same,viscosity,"30000 kPa, w1 = 0.3005",1.283 ± 0.042 mPa·s
same,viscosity,"30000 kPa, w1 = 0.3995",1.789 ± 0.059 mPa·s
same,mass density,"30000 kPa, w1 = 0.1005",989.7 ± 0.7 kg/m3
same,mass density,"30000 kPa, w1 = 0.202",983.7 ± 0.7 kg/m3
same,mass density,"30000 kPa, w1 = 0.3005",977.5 ± 0.7 kg/m3
same,mass density,"30000 kPa, w1 = 0.3995",970.2 ± 0.7 kg/m3
same,viscosity,"40000 kPa, w1 = 0.1005",0.6532 ± 0.021 mPa·s
same,viscosity,"40000 kPa, w1 = 0.202",0.9178 ± 0.03 mPa·s
same,viscosity,"40000 kPa, w1 = 0.3005",1.305 ± 0.043 mPa·s
same,viscosity,"40000 kPa, w1 = 0.3995",1.835 ± 0.06 mPa·s
same,mass density,"40000 kPa, w1 = 0.1005",993.7 ± 0.7 kg/m3
same,mass density,"40000 kPa, w1 = 0.202",987.7 ± 0.7 kg/m3
same,mass density,"40000 kPa, w1 = 0.3005",981.5 ± 0.7 kg/m3
same,mass density,"40000 kPa, w1 = 0.3995",974.2 ± 0.7 kg/m3
same,mass density,"50000 kPa, w1 = 0.1005",997.3 ± 0.7 kg/m3
same,mass density,"50000 kPa, w1 = 0.202",991.3 ± 0.7 kg/m3
same,mass density,"50000 kPa, w1 = 0.3005",985.2 ± 0.7 kg/m3
same,mass density,"50000 kPa, w1 = 0.3995",977.9 ± 0.7 kg/m3
same,viscosity,"60000 kPa, w1 = 0.1005",0.6631 ± 0.022 mPa·s
same,viscosity,"60000 kPa, w1 = 0.202",0.9397 ± 0.031 mPa·s
same,viscosity,"60000 kPa, w1 = 0.3005",1.353 ± 0.044 mPa·s
same,viscosity,"60000 kPa, w1 = 0.3995",1.927 ± 0.063 mPa·s
same,mass density,"60000 kPa, w1 = 0.1005",1001.1 ± 0.7 kg/m3
same,mass density,"60000 kPa, w1 = 0.202",995 ± 0.7 kg/m3
same,mass density,"60000 kPa, w1 = 0.3005",988.9 ± 0.7 kg/m3
same,mass density,"60000 kPa, w1 = 0.3995",981.7 ± 0.7 kg/m3
same,mass density,"70000 kPa, w1 = 0.1005",1004.9 ± 0.7 kg/m3
same,mass density,"70000 kPa, w1 = 0.202",998.6 ± 0.7 kg/m3
same,mass density,"70000 kPa, w1 = 0.3005",992.5 ± 0.7 kg/m3
same,mass density,"70000 kPa, w1 = 0.3995",985.4 ± 0.7 kg/m3
same,viscosity,"80000 kPa, w1 = 0.1005",0.6729 ± 0.022 mPa·s
same,viscosity,"80000 kPa, w1 = 0.202",0.9613 ± 0.032 mPa·s
same,viscosity,"80000 kPa, w1 = 0.3005",1.396 ± 0.046 mPa·s
same,viscosity,"80000 kPa, w1 = 0.3995",2.019 ± 0.066 mPa·s
same,mass density,"80000 kPa, w1 = 0.1005",1008.4 ± 0.7 kg/m3
same,mass density,"80000 kPa, w1 = 0.202",1002.1 ± 0.7 kg/m3
same,mass density,"80000 kPa, w1 = 0.3005",996 ± 0.7 kg/m3
same,mass density,"80000 kPa, w1 = 0.3995",988.9 ± 0.7 kg/m3
same,mass density,"90000 kPa, w1 = 0.1005",1012 ± 0.7 kg/m3
same,mass density,"90000 kPa, w1 = 0.202",1005.4 ± 0.7 kg/m3
same,mass density,"90000 kPa, w1 = 0.3005",999.2 ± 0.7 kg/m3
same,mass density,"90000 kPa, w1 = 0.3995",992.3 ± 0.7 kg/m3
same,viscosity,"100000 kPa, w1 = 0.1005",0.685 ± 0.023 mPa·s
same,viscosity,"100000 kPa, w1 = 0.202",0.9835 ± 0.032 mPa·s
same,viscosity,"100000 kPa, w1 = 0.3005",1.442 ± 0.047 mPa·s
same,viscosity,"100000 kPa, w1 = 0.3995",2.113 ± 0.069 mPa·s
same,mass density,"100000 kPa, w1 = 0.1005",1015.4 ± 0.7 kg/m3
same,mass density,"100000 kPa, w1 = 0.202",1008.9 ± 0.7 kg/m3
same,mass density,"100000 kPa, w1 = 0.3005",1002.7 ± 0.7 kg/m3
same,mass density,"100000 kPa, w1 = 0.3995",995.8 ± 0.7 kg/m3
same,mass density,"110000 kPa, w1 = 0.1005",1018.9 ± 0.7 kg/m3
same,mass density,"110000 kPa, w1 = 0.202",1012.2 ± 0.7 kg/m3
same,mass density,"110000 kPa, w1 = 0.3005",1006 ± 0.7 kg/m3
same,mass density,"110000 kPa, w1 = 0.3995",999 ± 0.7 kg/m3
same,mass density,"120000 kPa, w1 = 0.1005",1022.3 ± 0.7 kg/m3
same,mass density,"120000 kPa, w1 = 0.202",1015.5 ± 0.7 kg/m3
same,mass density,"120000 kPa, w1 = 0.3005",1009.3 ± 0.7 kg/m3
same,mass density,"120000 kPa, w1 = 0.3995",1002.4 ± 0.7 kg/m3
same,mass density,"130000 kPa, w1 = 0.1005",1025.5 ± 0.7 kg/m3
